Data reported in patent US20220265590A1, “DIBENZYLAMINES AS AMINO ACID TRANSPORT INHIBITORS” (VANDERBILT UNIVERSITY, priority 2019, published 2022).
pIC50: −log10 of the molar value.

Assays:
HEK293 cells [1] = assay: Glutamine uptake inhibition assay (3H-labeled glutamine accumulation in live cells); type: cell-based; conditions: Homo sapiens, 15 minutes incubation with 3H-GLN (500 nM), assay buffer pH 6, triplicate, read-out: ^3H Glut IC50
Description: Twenty-four hours prior to assay, HEK293 cells were seeded at a density of 12K cells per well into a 96 well plate (coated with poly-D-Lysine). […] Accumulation of 3H-labeled glutamine (3H-GLN) in live cells was assessed by incubation for 15 minutes with vehicle or test reagent at the concentrations indicated. The final concentration of 3H-GLN was 500 nM. Each compound was evaluated in triplicate. For the assay, cells were rinsed with assay buffer (pH 6) three times (100 uL). Compounds were transferred in a single-add protocol and incubated for 15 minutes with 3H-GLN. After the uptake period, the supernatant was removed and cell monolayers were washed 3× with 100 μl assay buffer. Subsequently, cells were lysed with 50 μl 1M NaOH and 150 μl scintillation liquid was added to each well. The plate was incubated at room temperature for 20 minutes, transferred to 4° C. storage overnight, and read the next day using a top-count plate reader (Perkin Elmer).

HEK293 cells [2] = assay: Viability (Cell Titer, CellTiter-Glo); type: cell-based; conditions: Homo sapiens, 48 h incubation, 96-well plate
Description: Viability (Cell Titer) was evaluated using a commercially available chemiluminescent reagents (CellTiter-Glo, Promega Corp. G7572) in 96-well plate format according to the manufacturers protocol. Cells were exposed to either vehicle or test agent at the indicated concentrations and incubated for a period of 48 h. Subsequently, CellTiter-Glo reagent was added and the plates were read using a plate reader (BioTek Synergy 4) with standard settings.

Compound	pIC50 (HEK293 cells [1])	pIC50 (HEK293 cells [2])
N[C@@H](CCN(Cc1ccccc1OCc1ccccc1F)Cc1ccccc1Oc1ccccc1F)C(=O)O [compound 7, (S)-2-amino-4-((2-((2-fluorobenzyl)oxy)benzyl)(2-(2-fluorophenoxy)benzyl)amino)butanoic acid]	4.03	4.73
N[C@@H](CCN(Cc1ccccc1OCc1ccc(F)cc1)Cc1ccccc1Oc1ccc(Cl)cc1)C(=O)O [compound 15, (S)-2-amino-4-((2-(4-chlorophenoxy)benzyl)(2-((4-fluorobenzyl)oxy)benzyl)amino)butanoic acid]	4.50	–
N[C@@H](CCN(Cc1ccccc1OCc1ccc(Cl)cc1)Cc1ccccc1Oc1ccc(Cl)cc1)C(=O)O [Cpd. No. 11, (S)-2-amino-4-((2-((4-chlorobenzyl)oxy)benzyl)(2-(4-chlorophenoxy)benzyl)amino)butanoic acid]	> 4.00	4.90
COc1ccc(Oc2ccccc2CN(CC[C@H](N)C(=O)O)Cc2ccccc2OCc2ccc(Cl)cc2)cc1 [compound 14, (S)-2-amino-4-((2-((4-chlorobenzyl)oxy)benzyl)(2-(4-methoxyphenoxy)benzyl)amino)butanoic acid]	3.79	–
N[C@@H](CCN(Cc1ccccc1OCc1ccccc1F)Cc1ccccc1Oc1ccc(Cl)cc1)C(=O)O [compound 10, (S)-2-amino-4-((2-(4-chlorophenoxy)benzyl)(2-((2-fluorobenzyl)oxy)benzyl)amino)butanoic acid]	4.37	–
COc1cccc(COc2ccccc2CN(CC[C@H](N)C(=O)O)Cc2ccccc2Oc2ccc(Cl)cc2)c1 [Cpd. No. 20, (S)-2-amino-4-((2-(4-chlorophenoxy)benzyl)(2-((3-methoxybenzyl)oxy)benzyl)amino) butanoic acid]	5.50	4.86
N[C@@H](CCN(Cc1ccccc1OCc1ccc(F)cc1)Cc1ccccc1Oc1ccccc1F)C(=O)O [compound 8, (S)-2-amino-4-((2-((4-fluorobenzyl)oxy)benzyl)(2-(2-fluorophenoxy)benzyl)amino)butanoic acid]	3.93	–
COc1ccc(Oc2ccccc2CN(CC[C@H](N)C(=O)O)Cc2ccccc2OCc2ccc(F)cc2)cc1 [compound 13, (S)-2-amino-4-((2-((4-fluorobenzyl)oxy)benzyl)(2-(4-methoxyphenoxy)benzyl)amino)butanoic acid]	4.54	–
Cc1cccc(COc2ccccc2CN(CC[C@H](N)C(=O)O)Cc2ccccc2Oc2ccc(Cl)cc2)c1 [Cpd. No. 21, (S)-2-amino-4-((2-(4-chlorophenoxy)benzyl)(2-((3-methylbenzyl)oxy)benzyl)amino) butanoic acid]	4.60	4.54
